Data as given in US20080004344A1, “Novel Salts of Fumaric Acid Monoalkylesters and Their Pharmaceutical Use” (ADITECH PHARMA AB, priority 2004, published 2008).

Legend:
[1] = test system: IL-2; assay: T cell specific stimulation of PBMC (CD3/CD28 beads), IL-2 ELISA; type: cell-based, human; settings: for IL-2 Conc: CD3/CD28 beads
Protocol: (§1) PBMC were isolated from blood of two healthy volunteers (person) via Ficoll density gradient centrifugation. The purified cells were used in parallel cultures for monocyte stimulations using Lipopolysaccharide (LPS) and T cell specific stimulations using bead-coupled antibodies directed against the T cell activation antigens CD3 and CD28.
(§2) Cultures were incubated in a tissue culture incubator at 37° C., 5% CO2 for 20 h, culture supernatants were harvested at the end of the culture period and used for cytokine quantitation. The measured cytokines in cell culture supernatants from either monocyte stimulation cultures (IL-8, IL-10, TNF-α) or T cell stimulation cultures (IL-2, IL-4) were quantitated with ELISAs (Becton Dickinson) according to the manufacturers instructions. The resulting optical density (OD) was measured on a Packard Fusion Reader and OD values were translated to cytokine concentrations (in pg/ml) with the use of the Fusion Reader Data Analysis Software.

[2] = test system: IL-4; assay: T cell specific stimulation of PBMC (CD3/CD28 beads), IL-4 ELISA; type: cell-based, human; settings: for IL-4 Conc: CD3/CD28 beads
Protocol: as §1, §2

[3] = test system: TNF-alpha; assay: Monocyte stimulation cultures of PBMC (LPS or unstimulated), TNF-alpha ELISA; type: cell-based, human
Protocol: as §1, §2

[4] = pH-value of the solution on dissolving in water; type: physicochemical; settings: dissolved in water
Protocol: When strontium monomethyl fumarate is dissolved in water, the pH-value of the solution raises to alkaline values (pH˜9-10), owing to production of hydroxyl ions: Sr(C5H5O4)2+2H2O→Sr^2+(aq)+2C5H6O4(aq)+2OH^−(aq) (2)

[5] = test system: IL-8; assay: Monocyte stimulation cultures of PBMC (LPS or unstimulated), IL-8 ELISA
[6] = test system: IL-10; assay: Monocyte stimulation cultures of PBMC (LPS or unstimulated), IL-10 ELISA
[7] = LPS 1 ng/ml, 10 μM MMF, Donor 1
[8] = LPS 1 ng/ml, 10 μM MMF, Donor 2
[9] = LPS 1 ng/ml, 30 μM MMF, Donor 1
[10] = LPS 1 ng/ml, 30 μM MMF, Donor 2
[11] = LPS 1 ng/ml, 100 μM MMF, Donor 1
[12] = LPS 1 ng/ml, 100 μM MMF, Donor 2
[13] = LPS 1 ng/ml, 300 μM MMF, Donor 1
[14] = LPS 1 ng/ml, 300 μM MMF, Donor 2
[15] = as single stimulant (unstimulated monocytes)
[16] = no LPS printed for these rows, 1 μM MMF, Donor 1
[17] = no LPS printed for these rows, 1 μM MMF, Donor 2
[18] = no LPS printed for these rows, 3 μM MMF, Donor 1
[19] = no LPS printed for these rows, 3 μM MMF, Donor 2
[20] = no LPS printed for these rows, 10 μM MMF, Donor 1
[21] = no LPS printed for these rows, 10 μM MMF, Donor 2
[22] = no LPS printed for these rows, 30 μM MMF, Donor 1
[23] = no LPS printed for these rows, 30 μM MMF, Donor 2
[24] = no LPS printed for these rows, 100 μM MMF, Donor 1
[25] = no LPS printed for these rows, 100 μM MMF, Donor 2
[26] = no LPS printed for these rows, 300 μM MMF, Donor 1
[27] = no LPS printed for these rows, 300 μM MMF, Donor 2
[28] = no LPS printed for these rows, 1 mM MMF, Donor 1
[29] = no LPS printed for these rows, 1 mM MMF, Donor 2
[30] = no LPS printed for these rows, 3 mM MMF, Donor 1
[31] = no LPS printed for these rows, 3 mM MMF, Donor 2

di-strontium-tetrakis-(mono methyl fumarate)-tetra hydrate [strontium MMF]
IL-2 Conc ([1]; 1 μM MMF, Donor 1): 5787 pg/mL
IL-2 Conc ([1]; 1 μM MMF, Donor 2): 2559 pg/mL
IL-2 Conc ([1]; 3 μM MMF, Donor 1): 4699 pg/mL
IL-2 Conc ([1]; 3 μM MMF, Donor 2): 1754 pg/mL
IL-2 Conc ([1]; 10 μM MMF, Donor 1): 5901 pg/mL
IL-2 Conc ([1]; 10 μM MMF, Donor 2): 1905 pg/mL
IL-2 Conc ([1]; 30 μM MMF, Donor 1): 4592 pg/mL
IL-2 Conc ([1]; 30 μM MMF, Donor 2): 2079 pg/mL
IL-2 Conc ([1]; 100 μM MMF, Donor 1): 170 pg/mL
IL-2 Conc ([1]; 100 μM MMF, Donor 2): 65 pg/mL
IL-2 Conc ([1]; 300 μM MMF, Donor 1): 2 pg/mL
IL-2 Conc ([1]; 300 μM MMF, Donor 2): 0 pg/mL
IL-2 Conc ([1]; 1 mM MMF, Donor 1): 0 pg/mL
IL-2 Conc ([1]; 1 mM MMF, Donor 2): 1 pg/mL
IL-2 Conc ([1]; 3 mM MMF, Donor 1): 1 pg/mL
IL-2 Conc ([1]; 3 mM MMF, Donor 2): 3 pg/mL
effect on IL-2 secretion ([1]; after T-cell stimulation): co-induction
IL-4 Conc ([2]; 1 μM MMF, Donor 1): 60 pg/mL
IL-4 Conc ([2]; 1 μM MMF, Donor 2): 12 pg/mL
IL-4 Conc ([2]; 3 μM MMF, Donor 1): 70 pg/mL
IL-4 Conc ([2]; 3 μM MMF, Donor 2): 10 pg/mL
IL-4 Conc ([2]; 10 μM MMF, Donor 1): 69 pg/mL
IL-4 Conc ([2]; 10 μM MMF, Donor 2): 12 pg/mL
IL-4 Conc ([2]; 30 μM MMF, Donor 1): 92 pg/mL
IL-4 Conc ([2]; 30 μM MMF, Donor 2): 20 pg/mL
IL-4 Conc ([2]; 100 μM MMF, Donor 1): 3 pg/mL
IL-4 Conc ([2]; 100 μM MMF, Donor 2): 0 pg/mL
IL-4 Conc ([2]; 300 μM MMF, Donor 1): 0 pg/mL
IL-4 Conc ([2]; 300 μM MMF, Donor 2): 0 pg/mL
IL-4 Conc ([2]; 1 mM MMF, Donor 1): 0 pg/mL
IL-4 Conc ([2]; 1 mM MMF, Donor 2): 0 pg/mL
IL-4 Conc ([2]; 3 mM MMF, Donor 1): 0 pg/mL
IL-4 Conc ([2]; 3 mM MMF, Donor 2): 0 pg/mL
effect on IL-4 secretion ([2]; after T-cell stimulation): co-induction
TNF-alpha Conc ([3]; LPS 1 ng/ml, 1 μM MMF, Donor 1): 464 pg/mL
TNF-alpha Conc ([3]; LPS 1 ng/ml, 1 μM MMF, Donor 2): 459 pg/mL
TNF-alpha Conc ([3]; LPS 1 ng/ml, 3 μM MMF, Donor 1): 631 pg/mL
TNF-alpha Conc ([3]; LPS 1 ng/ml, 3 μM MMF, Donor 2): 650 pg/mL
TNF-alpha Conc [3, 7]: 1624 pg/mL
TNF-alpha Conc [3, 8]: 2559 pg/mL
TNF-alpha Conc [3, 9]: 1787 pg/mL
TNF-alpha Conc [3, 10]: 3289 pg/mL
TNF-alpha Conc [3, 11]: 250 pg/mL
TNF-alpha Conc [3, 12]: 711 pg/mL
TNF-alpha Conc [3, 13]: 20 pg/mL
TNF-alpha Conc [3, 14]: 96 pg/mL
TNF-alpha Conc ([3]; LPS 1 ng/ml, 1 mM MMF, Donor 1): 0 pg/mL
TNF-alpha Conc ([3]; LPS 1 ng/ml, 1 mM MMF, Donor 2): 11 pg/mL
TNF-alpha Conc ([3]; LPS 1 ng/ml, 3 mM MMF, Donor 1): 0 pg/mL
TNF-alpha Conc ([3]; LPS 1 ng/ml, 3 mM MMF, Donor 2): 0 pg/mL
effect on TNF-alpha secretion ([3]; LPS-stimulated monocytes): co-stimulatory
effect on TNF-alpha secretion [3, 15]: induced
TNF-alpha Conc [3, 16]: 29 pg/mL
TNF-alpha Conc [3, 17]: 13 pg/mL
TNF-alpha Conc [3, 18]: 38 pg/mL
TNF-alpha Conc [3, 19]: 10 pg/mL
TNF-alpha Conc [3, 20]: 570 pg/mL
TNF-alpha Conc [3, 21]: 47 pg/mL
TNF-alpha Conc [3, 22]: 1343 pg/mL
TNF-alpha Conc [3, 23]: 682 pg/mL
TNF-alpha Conc [3, 24]: 313 pg/mL
TNF-alpha Conc [3, 25]: 236 pg/mL
TNF-alpha Conc [3, 26]: 3 pg/mL
TNF-alpha Conc [3, 27]: 12 pg/mL
TNF-alpha Conc [3, 28]: 0 pg/mL
TNF-alpha Conc [3, 29]: 3 pg/mL
TNF-alpha Conc [3, 30]: 0 pg/mL
TNF-alpha Conc [3, 31]: 0 pg/mL
pH-value of the solution [4]: 9-10
IL-8 Conc ([5]; LPS 1 ng/ml, 1 μM MMF, Donor 1): 35264 pg/mL
IL-8 Conc ([5]; LPS 1 ng/ml, 1 μM MMF, Donor 2): 25146 pg/mL
IL-8 Conc ([5]; LPS 1 ng/ml, 3 μM MMF, Donor 1): 26255 pg/mL
IL-8 Conc ([5]; LPS 1 ng/ml, 3 μM MMF, Donor 2): 24672 pg/mL
IL-8 Conc [5, 7]: 1259306 pg/mL
IL-8 Conc [5, 8]: 70691 pg/mL
IL-8 Conc [5, 9]: 1369127 pg/mL
IL-8 Conc [5, 10]: 1357587 pg/mL
IL-8 Conc [5, 11]: 80524 pg/mL
IL-8 Conc [5, 12]: 1285660 pg/mL
IL-8 Conc [5, 13]: 7135 pg/mL
IL-8 Conc [5, 14]: 31370 pg/mL
IL-8 Conc ([5]; LPS 1 ng/ml, 1 mM MMF, Donor 1): 558 pg/mL
IL-8 Conc ([5]; LPS 1 ng/ml, 1 mM MMF, Donor 2): 2825 pg/mL
IL-8 Conc ([5]; LPS 1 ng/ml, 3 mM MMF, Donor 1): 86 pg/mL
IL-8 Conc ([5]; LPS 1 ng/ml, 3 mM MMF, Donor 2): 424 pg/mL
effect on IL-8 secretion ([5]; LPS stimulated monocytes): did not induce a co-stimulation
IL-8 Conc [5, 16]: 138285 pg/mL
IL-8 Conc [5, 17]: 241352 pg/mL
IL-8 Conc [5, 18]: 219130 pg/mL
IL-8 Conc [5, 19]: 349450 pg/mL
IL-8 Conc [5, 20]: 249798 pg/mL
IL-8 Conc [5, 21]: 446267 pg/mL
IL-8 Conc [5, 22]: 179340 pg/mL
IL-8 Conc [5, 23]: 315447 pg/mL
IL-8 Conc [5, 24]: 60312 pg/mL
IL-8 Conc [5, 25]: 153980 pg/mL
IL-8 Conc [5, 26]: 12354 pg/mL
IL-8 Conc [5, 27]: 31040 pg/mL
IL-8 Conc [5, 28]: 1696 pg/mL
IL-8 Conc [5, 29]: 5363 pg/mL
IL-8 Conc [5, 30]: 176 pg/mL
IL-8 Conc [5, 31]: 577 pg/mL
effect on IL-8 secretion ([5]; unstimulated monocytes): did induce an induction
IL-10 Conc ([6]; LPS 1 ng/ml, 1 μM MMF, Donor 1): 11 pg/mL
IL-10 Conc ([6]; LPS 1 ng/ml, 1 μM MMF, Donor 2): 11 pg/mL
IL-10 Conc ([6]; LPS 1 ng/ml, 3 μM MMF, Donor 1): 13 pg/mL
IL-10 Conc ([6]; LPS 1 ng/ml, 3 μM MMF, Donor 2): 5 pg/mL
IL-10 Conc [6, 7]: 106 pg/mL
IL-10 Conc [6, 8]: 13 pg/mL
IL-10 Conc [6, 9]: 62 pg/mL
IL-10 Conc [6, 10]: 32 pg/mL
IL-10 Conc [6, 11]: 7 pg/mL
IL-10 Conc [6, 12]: 0 pg/mL
IL-10 Conc [6, 13]: 0 pg/mL
IL-10 Conc [6, 14]: 0 pg/mL
IL-10 Conc ([6]; LPS 1 ng/ml, 1 mM MMF, Donor 1): 2 pg/mL
IL-10 Conc ([6]; LPS 1 ng/ml, 1 mM MMF, Donor 2): 0 pg/mL
IL-10 Conc ([6]; LPS 1 ng/ml, 3 mM MMF, Donor 1): 1 pg/mL
IL-10 Conc ([6]; LPS 1 ng/ml, 3 mM MMF, Donor 2): 0 pg/mL
effect on IL-10 secretion ([6]; LPS-stimulated monocytes): co-induced
effect on IL-10 secretion [6, 15]: induced
IL-10 Conc [6, 16]: 775 pg/mL
IL-10 Conc [6, 17]: 1125 pg/mL
IL-10 Conc [6, 18]: 886 pg/mL
IL-10 Conc [6, 19]: 1385 pg/mL
IL-10 Conc [6, 20]: 1026 pg/mL
IL-10 Conc [6, 21]: 2035 pg/mL
IL-10 Conc [6, 22]: 351 pg/mL
IL-10 Conc [6, 23]: 800 pg/mL
IL-10 Conc [6, 24]: 7 pg/mL
IL-10 Conc [6, 25]: 40 pg/mL
IL-10 Conc [6, 26]: 0 pg/mL
IL-10 Conc [6, 27]: 0 pg/mL
IL-10 Conc [6, 28]: 0 pg/mL
IL-10 Conc [6, 29]: 0 pg/mL
IL-10 Conc [6, 30]: 0 pg/mL
IL-10 Conc [6, 31]: 0 pg/mL
